Read-outs that look alike come from different tables or passages of the source.
Biological target: PAK4 (Homo sapiens, UniProt O96013)
Experiment: radiometric [γ-33P]-ATP kinase assay (Eurofins KinaseProfiler), myelin basic protein substrate
Type: biochemical

PAK4, sequence (O96013 whole entry): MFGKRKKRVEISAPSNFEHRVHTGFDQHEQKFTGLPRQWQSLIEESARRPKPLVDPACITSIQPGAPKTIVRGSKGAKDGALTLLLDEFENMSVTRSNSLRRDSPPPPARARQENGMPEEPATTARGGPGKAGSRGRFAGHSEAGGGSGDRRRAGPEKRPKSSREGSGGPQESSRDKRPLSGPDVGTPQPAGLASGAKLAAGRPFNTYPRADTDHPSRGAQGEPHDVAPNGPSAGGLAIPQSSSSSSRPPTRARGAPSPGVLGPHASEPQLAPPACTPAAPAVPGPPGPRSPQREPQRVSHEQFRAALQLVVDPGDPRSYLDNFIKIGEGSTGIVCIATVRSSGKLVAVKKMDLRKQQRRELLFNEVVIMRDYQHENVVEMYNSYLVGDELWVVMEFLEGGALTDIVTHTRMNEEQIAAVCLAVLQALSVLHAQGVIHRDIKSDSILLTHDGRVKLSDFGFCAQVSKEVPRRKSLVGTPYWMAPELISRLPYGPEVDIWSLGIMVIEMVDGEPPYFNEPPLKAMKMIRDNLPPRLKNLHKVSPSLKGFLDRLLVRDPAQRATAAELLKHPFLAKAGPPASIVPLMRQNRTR

Row | IC50 (read-out: 2) | IC50 (read-out: 1) | SMILES
1 | 8.53 µM |  | CC(C)c1nn(C)cc1-c1nc2cc(Cl)cnc2[nH]1 [compound 2, 6-chloro-2-(3-isopropyl-1-methyl-1H-pyrazol-4-yl)-3H-imidazo[4,5-b]pyridine]
2 |  | 5.15 µM | CC(C)c1nn(C)cc1-c1nc2cc(Br)cnc2[nH]1 [compound 1, 6-bromo-2-(3-isopropyl-1-methyl-1H-pyrazol-4-yl)-3H-imidazo[4,5-b]pyridine]

Source: paper PMC8953563, “A Study on the Effect of the Substituent against PAK4 Inhibition Using In Silico Methods” (International Journal of Molecular Sciences, 2022)
